Experimental data: US8394834B2, “Pyrrolidines as NK3 receptor antagonists” (Hoffman-La Roche Inc., priority 2009, dated 2013)

Tests used:
[1] = biological target: T1, recombinant human NK3 receptor (Homo sapiens, UniProt P29371); test: [3H]SR142801 competition binding assay; details: hNK3 receptor, membranes from HEK293 cells transiently expressing the receptor, [3H]SR142801 radioligand
T1 construct: expressed in transfected cells; host or cells: HEK293 cells (transient expression), membranes
T1 sequence (P29371 1-465): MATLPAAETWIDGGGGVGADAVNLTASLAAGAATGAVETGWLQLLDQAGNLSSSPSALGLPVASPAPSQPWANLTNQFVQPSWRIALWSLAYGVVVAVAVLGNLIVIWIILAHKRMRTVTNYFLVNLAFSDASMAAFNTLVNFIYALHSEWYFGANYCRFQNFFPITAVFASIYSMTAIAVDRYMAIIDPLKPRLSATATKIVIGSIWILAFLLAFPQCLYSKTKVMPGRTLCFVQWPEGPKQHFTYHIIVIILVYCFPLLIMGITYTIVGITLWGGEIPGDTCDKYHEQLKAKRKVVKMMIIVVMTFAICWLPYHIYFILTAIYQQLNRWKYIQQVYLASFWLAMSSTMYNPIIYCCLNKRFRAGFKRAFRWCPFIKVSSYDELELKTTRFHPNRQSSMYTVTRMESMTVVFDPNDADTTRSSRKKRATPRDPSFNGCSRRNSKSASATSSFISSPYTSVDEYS
Experimental: [^3H]SR142801 Competition Binding Assay
hNK3 receptor binding experiment were performed using [^3H]SR142801 (Catalog No. TRK1035, specific activity: 74.0 Ci/mmol, Amersham, GE Healthcare UK limited, Buckinghamshire, UK) and membrane isolated from HEK293 cells transiently expressing recombinant human NK3 receptor. After thawing, the membrane homogenates were centrifuged at 48,000×g for 10 min at 4° C., the pellets were resuspended in the 50 mM Tris-HCl, 4 mM MnCl2, 1 μM phosphoramidon, 0.1% BSA binding buffer at pH 7.4 to a final assay concentration of 5 μg protein/well. For inhibition experiments, membranes were incubated with [^3H]SR142801 at a concentration equal to KD value of radioligand and 10 concentrations of the inhibitory compound (0.0003-10 μM) (in a total reaction volume of 500 μl) for 75 min at room temperature (RT). At the end of the incubation, membranes were filtered onto unitfilter (96-well white microplate with bonded GF/C filter preincubated 1 h in 0.3% PEI+0.3% BSA, Packard BioScience, Meriden, Conn.) with a Filtermate 196 harvester (Packard BioScience) and washed 4 times with ice-cold 50 mM Tris-HCl, pH 7.4 buffer. Nonspecific binding was measured in the presence of 10 μM SB222200 for both radioligands. The radioactivity on the filter was counted (5 min) on a Packard Top-count microplate scintillation counter with quenching correction after addition of 45 μl of microscint 40 (Can berra Packard S. A., Zürich, Switzerland) and shaking for 1 h. Inhibition curves were fitted according to the Hill equation: […]), where nH=slope factor using Excel-fit 4 software (Microsoft). IC50 values were derived from the inhibition curve and the affinity constant (Ki) values were calculated using the Cheng-Prussoff equation Ki=IC50/(1+[L]/KD) where [L] is the concentration of radioligand and KD is its dissociation constant at the receptor, derived from the saturation isotherm. All experiments were performed in duplicate and the mean±standard error (SEM) of the individual Ki values was calculated.

schizophrenia = details: phase II trial, cited from earlier work

Ki [1] [nM] | SMILES | activity on positive symptoms of schizophrenia (schizophrenia; altered behaviour, delusion, hallucinations, extreme emotions, excited motor activity, incoherent speech) | activity in the treatment of negative symptoms (schizophrenia; depression, anhedonia, social isolation or memory and attention deficits)
2.8 | Cc1ccc(N2CCC(C(=O)N3C[C@H]([C@H](C)Oc4ccc(C#N)cn4)[C@@H](c4ccc(F)c(F)c4)C3)CC2)nn1 [Example 21, 6-((S)-1-{(3R,4S)-4-(3,4-Difluoro-phenyl)-1-[1-(6-methyl-pyridazin-3-yl)-piperidine-4-carbonyl]-pyrrolidin-3-yl}-ethoxy)-nicotinonitrile] |  | 
 | CC(=O)N(C)C1(c2ccccc2)CCN(CCC[C@]2(c3ccc(Cl)c(Cl)c3)CCCN(C(=O)c3ccccc3)C2)CC1 [SR 142,801, Osanetant] | active | inactive
